Where a name gives a salt, the structure may show the parent alone.

The text below walks through data of patent US12297190B2, “Modulators of STING (stimulator of interferon genes)” (PFIZER INC., priority 2019, dated 2025).

Assay [1] addresses T1, STING (Homo sapiens, UniProt Q86WV6, G230A/H232R/R293Q/R71H).
T1 construct: host or cells: THP-1 and THP-1 Lucia ISG cells
Description: Interferon-β induction: THP-1 Lucia ISG reporter cell line. It counts as cell-based. To be noted: THP-1 Lucia ISG cells, 24 hours incubation, luciferase reporter; read-out: THP-1 Lucia ISG Cells IFN-β EC50. In outline: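 THP-1 Lucia ISG cells (IRF-inducible secreted luciferase) treated 24 h with serially diluted compounds, final 0.5% DMSO, at 37 °C. Supernatant luminescence read with QUANTI-Luc, normalized to % effect between a maximal STING agonist positive control and DMSO.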
For orientation: In a reporter assay the amount or activity of a reporter protein is the signal.

Assay [2] has as its target T1, STING. Kind of assay: Phosphorylation of IRF3: THP-1 cell ELISA. It counts as cell-based. To be noted: THP-1 cells, 3 hours incubation, phospho-IRF3 ELISA; read-out: THP-1 CELL P-IRF3 EC50. The gist of the method:
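THP-1 cells (10^4/well, seeded overnight) were treated with serially diluted compounds (final 0.5% DMSO) for 3 h. Lysates were analysed by sandwich ELISA (anti-IRF3 capture, anti-phospho-IRF3 detection, HRP luminescence). Signal was normalized as % effect between DMSO and a maximal STING agonist control.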
Background: An ELISA detects its analyte on a solid surface through an enzyme-linked reagent.

The target in a further assay is R232-STING (Homo sapiens, UniProt Q86WV6, H232R). Description: biochemical.
Sequence of R232-STING (Q86WV6 155-341 H232R): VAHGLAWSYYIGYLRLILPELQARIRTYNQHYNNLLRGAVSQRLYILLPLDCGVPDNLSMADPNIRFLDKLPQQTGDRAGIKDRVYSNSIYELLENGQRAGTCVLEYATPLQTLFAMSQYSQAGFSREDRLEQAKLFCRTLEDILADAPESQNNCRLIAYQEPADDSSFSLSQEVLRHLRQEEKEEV

T1 sequence (Q86WV6 whole entry R71H/G230A/H232R/R293Q): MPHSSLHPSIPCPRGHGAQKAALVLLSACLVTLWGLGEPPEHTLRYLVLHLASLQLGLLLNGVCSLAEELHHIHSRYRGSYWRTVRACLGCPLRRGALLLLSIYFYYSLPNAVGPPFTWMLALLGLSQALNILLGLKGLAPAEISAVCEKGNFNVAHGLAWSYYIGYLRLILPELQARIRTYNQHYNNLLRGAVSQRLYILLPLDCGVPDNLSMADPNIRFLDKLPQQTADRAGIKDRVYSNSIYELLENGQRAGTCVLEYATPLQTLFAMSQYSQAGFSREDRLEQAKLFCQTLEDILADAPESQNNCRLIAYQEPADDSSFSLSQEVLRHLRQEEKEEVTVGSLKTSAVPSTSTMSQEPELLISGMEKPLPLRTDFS

One may read the EC50 as the concentration at which the effect is half-maximal. A word on the Ki: it is a measure of affinity in units of concentration, obtained from inhibition or displacement. In the case of `CCn1nc(C)cc1-c1nnc(-c2cc(C(N)=O)cc3c2cnn3[C@@H]2CCNC2)[nH]1` [YY14, 4-[5-(1-ethyl-3-methyl-1H-pyrazol-5-yl)-4H-1,2,4-triazol-3-yl]-1-[(3R)-pyrrolidin-3-yl]-1H-indazole-6-carboxamide], the concentration giving a half-maximal response (EC50) at STING [1] and on STING [2] was above 100 µM throughout. Moreover, at R232-STING, the Ki amounted to 0.484 µM.
As for `CCn1nc(C)cc1-c1n[nH]c(-c2cc(C(N)=O)cc3c2cnn3CCN2CCC(F)(F)CC2)n1` [Example M02], the EC50 was 22.6 µM at STING [1] and 16.6 µM on STING [2]. At R232-STING, this molecule came in with a Ki of 0.278 µM.
The like results for `CCn1nc(C)cc1-c1n[nH]c(-c2cc(C(N)=O)cc3c2cnn3C(C)CN2CCOCC2)n1` (stereo not drawn) [Example D06, 4-[5-(1-ethyl-3-methyl-1H-pyrazol-5-yl)-4H-1,2,4-triazol-3-yl]-1-[1-(morpholin-4-yl)propan-2-yl]-1H-indazole-6-carboxamide] were, in that order, at least 100 µM, 82.9 µM and 0.301 µM.
The corresponding values for `Cc1nn(CCO)c(-c2nnc(-c3nc(C(N)=O)cc4c3cnn4C)[nH]2)c1O` [Example V01, 4-{5-[4-hydroxy-1-(2-hydroxyethyl)-3-methyl-1H-pyrazol-5-yl]-4H-1,2,4-triazol-3-yl}-1-methyl-1H-pyrazolo[4,3-c]pyridine-6-carboxamide] are 0.59 µM, 0.89 µM and 0.0069 µM.
The like results for `CCn1nc(C)c(F)c1-c1nc(-c2nc(C(N)=O)cc3c2cnn3CCN2CCC(C#N)CC2)n(C)n1` [Example J02] were, in that order, 2.76 µM, 3.6 µM and 0.0324 µM.
Take `CCn1nc(C)cc1-c1n[nH]c(-c2cc(C(N)=O)cc3c2cnn3CCN2CC3CCC2CO3)n1` (stereo not drawn) [YY25, 4-[3-(1-ethyl-3-methyl-1H-pyrazol-5-yl)-1H-1,2,4-triazol-5-yl]-1-[2-(2-oxa-5-azabicyclo[2.2.2]octan-5-yl)ethyl]-1H-indazole-6-carboxamide]: the EC50 at STING [1] and at STING [2] was above 33.3 µM in each case. Moreover, on R232-STING, the Ki stood at 0.212 µM.
On to `CCn1nc(C)cc1-c1n[nH]c(-c2cc(C(N)=O)cc3c2cnn3CCN2CCO[C@@H](C)C2)n1` [YY24, 4-[3-(1-ethyl-3-methyl-1H-pyrazol-5-yl)-1H-1,2,4-triazol-5-yl]-1-{2-[(2S)-2-methylmorpholin-4-yl]ethyl}-1H-indazole-6-carboxamide], for which the EC50 was above 100 µM at STING [1] and above 33.3 µM at STING [2]. At R232-STING, this molecule registered an inhibitory constant (Ki) of 0.354 µM.
The like results for `Cc1cc(-c2nc(-c3nc(C(N)=O)cc4c3cnn4C)n(C)n2)n(CCCO)n1` [Example AD01, 4-{3-[1-(3-hydroxypropyl)-3-methyl-1H-pyrazol-5-yl]-1-methyl-1H-1,2,4-triazol-5-yl}-1-methyl-1H-pyrazolo[4,3-c]pyridine-6-carboxamide] were, in that order, 0.08 µM, 0.08 µM and 0.0022 µM.
The like results for `CCn1nc(C)cc1-c1nnc(-c2cc(C(N)=O)cc3c2cnn3CCN2CCC(C#N)CC2)[nH]1` [YY09, 1-[2-(4-cyanopiperidin-1-yl)ethyl]-4-[5-(1-ethyl-3-methyl-1H-pyrazol-5-yl)-4H-1,2,4-triazol-3-yl]-1H-indazole-6-carboxamide] were, in that order, above 100 µM, above 100 µM and 0.141 µM.
The corresponding values for `CCn1nc(C)cc1-c1n[nH]c(-c2cc(C(N)=O)cc3c2cnn3CCCC(=O)O)n1` [YY02, 4-{6-carbamoyl-4-[3-(1-ethyl-3-methyl-1H-pyrazol-5-yl)-1H-1,2,4-triazol-5-yl]-1H-indazol-1-yl}butanoic acid] are above 100 µM, above 100 µM and 0.0848 µM.
In the case of `Cc1nn(CCC(=O)O)c(-c2n[nH]c(-c3cc(C(N)=O)cc4c3cnn4C)n2)c1F` [YY06, 3-{5-[5-(6-carbamoyl-1-methyl-1H-indazol-4-yl)-1H-1,2,4-triazol-3-yl]-4-fluoro-3-methyl-1H-pyrazol-1-yl}propanoic acid], the EC50 on STING [1] and at STING [2] was above 100 µM in each case. This molecule also came in with a Ki at R232-STING of 0.0471 µM.
As to `CCn1nc(C)cc1-c1nc(-c2nc(C(N)=O)cc3c2cnn3C)c(CNC)s1` [Example AA01, 4-{2-(1-ethyl-3-methyl-1H-pyrazol-5-yl)-5-[(methylamino)methyl]-1,3-thiazol-4-yl}-1-methyl-1H-pyrazolo[4,3-c]pyridine-6-carboxamide], the figures for the EC50 on STING [1] and at STING [2] were 13.2 µM and 11.8 µM, respectively. The affinity on R232-STING, expressed as Ki, was 0.134 µM.
In the case of `CCn1nc(C)cc1-c1n[nH]c(-c2cc(C(N)=O)cc3c2cnn3CCN2CC3CCC(C2)O3)n1` [Example M03], the EC50 was determined as 28.5 µM at STING [1] and 32.1 µM on STING [2]. The same molecule came in with an inhibition constant Ki at R232-STING of 0.159 µM.
The corresponding values for `CCn1nc(C)c(Cl)c1-c1nc(-c2cc(C(N)=O)cc3c2cnn3C)n[nH]1` [Example C04, 4-[5-(4-chloro-1-ethyl-3-methyl-1H-pyrazol-5-yl)-1H-1,2,4-triazol-3-yl]-1-methyl-1H-indazole-6-carboxamide] are 0.24 µM, 0.25 µM and 0.0133 µM.
The like results for `CCn1nc(C)cc1-c1n[nH]c(-c2cc(C(N)=O)cc3c2cnn3CC(=O)O)n1` [Example P01, {6-carbamoyl-4-[3-(1-ethyl-3-methyl-1H-pyrazol-5-yl)-1H-1,2,4-triazol-5-yl]-1H-indazol-1-yl}acetic acid] were, in that order, at least 100 µM, 75.6 µM and 0.241 µM.
Consider `CCn1nc(C)cc1-c1n[nH]c(-c2cc(C(N)=O)cc3c2cnn3CCN2C3CCC2COC3)n1` [YY23, 4-[3-(1-ethyl-3-methyl-1H-pyrazol-5-yl)-1H-1,2,4-triazol-5-yl]-1-[2-(3-oxa-8-azabicyclo[3.2.1]octan-8-yl)ethyl]-1H-indazole-6-carboxamide], for which the EC50 on STING [1] and at STING [2] was above 33.3 µM in each case. The molecule further returned a Ki at R232-STING of 0.457 µM.
As for `CCn1nc(C)c(F)c1-c1nc(-c2nc(C(N)=O)cc3c2cnn3C)c(CN)s1` [Example S01, 4-[5-(aminomethyl)-2-(1-ethyl-4-fluoro-3-methyl-1H-pyrazol-5-yl)-1,3-thiazol-4-yl]-1-methyl-1H-pyrazolo[4,3-c]pyridine-6-carboxamide], the results for the EC50 on STING [1] and on STING [2] were 2.3 µM and 1.3 µM, respectively. Further, the inhibition constant Ki at R232-STING came out at 0.0115 µM.
The corresponding values for `Cc1nn(CCC(=O)O)c(-c2n[nH]c(-c3cc(C(N)=O)cc4c3cnn4C)n2)c1Cl` [YY05, 3-{5-[5-(6-carbamoyl-1-methyl-1H-indazol-4-yl)-1H-1,2,4-triazol-3-yl]-4-chloro-3-methyl-1H-pyrazol-1-yl}propanoic acid] are above 100 µM, above 100 µM and 0.396 µM.
On to `CCn1nc(C)cc1-c1n[nH]c(-c2c(F)c(C(N)=O)cc3c2cnn3C)n1` [Example E01, 4-[3-(1-ethyl-3-methyl-1H-pyrazol-5-yl)-1H-1,2,4-triazol-5-yl]-5-fluoro-1-methyl-1H-indazole-6-carboxamide], for which the EC50 on STING [1] amounted to 0.65 µM; on STING [2], 0.64 µM. This molecule displayed an inhibition constant (Ki) at R232-STING of 0.0287 µM.
The like results for `CCn1nc(C)cc1-c1n[nH]c(-c2cc(C(N)=O)cc3c2ccn3C)n1` [Example A02, 4-[3-(1-ethyl-3-methyl-1H-pyrazol-5-yl)-1H-1,2,4-triazol-5-yl]-1-methyl-1H-indole-6-carboxamide] were, in that order, 7.48 µM, 6.68 µM and 0.0294 µM.
`CCn1nc(C)c(F)c1-c1nc(-c2cc(C(N)=O)cc3c2cnn3CCN2CCOCC2)n[nH]1` [Example C05, 4-[5-(1-ethyl-4-fluoro-3-methyl-1H-pyrazol-5-yl)-1H-1,2,4-triazol-3-yl]-1-[2-(morpholin-4-yl)ethyl]-1H-indazole-6-carboxamide]: the EC50 at STING [1] was 27.4 µM; at STING [2] it was 31.6 µM. Also, on R232-STING, the inhibitory constant (Ki) was 0.165 µM.
As for `CCn1nc(C)cc1-c1n[nH]c(-c2cc(C(N)=O)cc3c2cnn3CCN2CC(F)C2)n1` [Example M01, 4-[3-(1-ethyl-3-methyl-1H-pyrazol-5-yl)-1H-1,2,4-triazol-5-yl]-1-[2-(3-fluoroazetidin-1-yl)ethyl]-1H-indazole-6-carboxamide trifluoroacetic acid salt], the EC50 on STING [1] stood at 81.9 µM; on STING [2] it was 77.3 µM. Moreover, at R232-STING, affinity was put at a Ki of 0.501 µM.
The like results for `CCn1nc(C)cc1-c1nnc(-c2cc(C(N)=O)cc3c2cnn3Cc2nc3c(o2)CNC3)[nH]1` [YY16, 1-[(5,6-dihydro-4H-pyrrolo[3,4-d][1,3]oxazol-2-yl)methyl]-4-[5-(1-ethyl-3-methyl-1H-pyrazol-5-yl)-4H-1,2,4-triazol-3-yl]-1H-indazole-6-carboxamide] were, in that order, above 100 µM, above 100 µM and 0.369 µM.
As for `CCn1nc(C)cc1-c1n[nH]c(-c2cc(C(N)=O)cc3nn(C)cc23)n1` [Example C01, 4-[3-(1-ethyl-3-methyl-1H-pyrazol-5-yl)-1H-1,2,4-triazol-5-yl]-2-methyl-2H-indazole-6-carboxamide], the concentration giving a half-maximal response (EC50) at STING [1] is 45.3 µM; on STING [2], at least 100 µM. Also, the inhibitory constant (Ki) at R232-STING was 0.23 µM.
The like results for `Cc1nn(CCCO)c(-c2nc(-c3nc(C(N)=O)cc4c3cnn4C)c(CN)o2)c1O` [Example U03] were, in that order, 2.52 µM, 2.82 µM and 0.0298 µM.
